Experiments:
BfrB (apo-BfrB) = BfrB (apo-BfrB) (Pseudomonas aeruginosa (strain ATCC 15692 / DSM 22644 / CIP 104116 / JCM 14847 / LMG 12228 / 1C / PRS 101 / PAO1), UniProt Q9HY79); test: Fluorescence polarization measurement of dissociation constant (Kd); assay type: binding; conditions: for Kd: 100 mM potassium phosphate buffer pH 7.6, 1 mM TCEP, 0.5% DMSO, average ± SD
Protocol: Values were obtained in 100 mM potassium phosphate buffer (pH 7.6) containing 1 mM TCEP and 0.5% DMSO. The initial concentrations of KM-5-25 and KM-5-66 were 5 μM. The Kd values are the average and standard deviation from three independent measurements. […] The IC50 values are the average and the standard derivations from three independent experiments.
Prior to testing the effect that the 4-substituted isoindoline-1,3-dione derivatives might exert on P. aeruginosa cells, the strength of their interaction with BfrB was evaluated in vitro with a fluorescence polarization assay developed based on the intrinsic fluorescence of the isoindoline-1,3-dione moiety.

[1] = test system: P. aeruginosa clinical isolate PA_1076058; assay type: cell-based, Pseudomonas aeruginosa; conditions: 2-day old pellicles, 24 h, 1.2× the IC50 (KM-5-25 80 μM; KM-5-66 50 μM)
Protocol: (§1) Pellicle biofilms were grown as described above.
(§2) To investigate whether the compounds are also active against other strains of P. aeruginosa, pellicles of several clinical isolates from JMI Laboratories were cultured. […] To gain a broader understanding of the potential activity spectrum of the BfrB-Bfd inhibitors against P. aeruginosa strains, BLASTp^62 was used to find homologs of BfrB and Bfd sequences in the >4,400 P. aeruginosa genomes in the Pseudomonas Genome Database.^63 The results reveal two important facts: (i) The bfrB and bfd genes are adjacent to one another in all the P. aeruginosa strains, (ii) There is an extremely high level of conservation among the bfd and bfrB sequences. These findings evidence that the compounds of the present technology are broadly active against P. aeruginosa.

[2] = test system: P. aeruginosa clinical isolate PA_1081725; assay type: cell-based, Pseudomonas aeruginosa; conditions: 2-day old pellicles, 24 h, 1.2× the IC50 (KM-5-25 80 μM; KM-5-66 50 μM)
Protocol: as §1, §2

[3] = test system: iron stored in BfrB in P. aeruginosa PAO1 pellicle cells; test: Imaging of iron stored in BfrB in biofilm-embedded cells (native PAGE, Ferene S, densitometry); assay type: cell-based, Pseudomonas aeruginosa; conditions: 24 h; KM-5-25 40 μM, KM-5-66 20 μM
Excerpt: (§3) Recombinant BfrB (BfrBrec) was used as a standard for the electrophoretic mobility of BfrB. The lane corresponding to untreated control was loaded with 0.5× the volume of the lanes loaded with lysates from treated pellicles to account for the ˜2-fold larger number of viable cells in the untreated pellicles. Lanes loaded with treated pellicle lysates show greater accumulation of iron in BfrB relative to untreated cells. […] (A), (C) and (D) show the average of results from 3 biological replicates, p<0.001 is denoted by *** relative to untreated.
(§4) Pellicle biofilms were grown for 48 hours as described above. The pellicles were transferred onto square (2 cm×2 cm) glass coverslips by gently contacting the pellicle with the coverslip. […] Levels of total intracellular iron were determined as reported previously:^23, 86 the cell pellets were treated with 500 μL of freshly prepared digestion reagent (0.6 N HCl, 2.25% (w/v) KMnO4 in water), thoroughly mixed by vortexing, and then incubated at 65° C. for 3.5 hours. […] The iron concentration was measured from the absorbance of the Fe^2+-Ferene S complex (ε593=34.5 mM^−1 cm^−1),^87 normalized by the viable cell counts and reported as Fe atoms per cell. […]

[4] = test system: P. aeruginosa PAO1 pellicle cells; test: Total intracellular iron in biofilm-embedded cells; assay type: cell-based, Pseudomonas aeruginosa; conditions: 24 h; KM-5-25 40 μM, KM-5-66 20 μM
Excerpt: as §3, §4

Compound | Kd (BfrB (apo-BfrB)) [µM] | fold higher binding affinity for BfrB relative to JAG-5-7 (BfrB (apo-BfrB); relative to JAG-5-7) [fold] | reduction of viable cells [1] | reduction of viable cells [2] | iron in BfrB relative to untreated pellicles (Ferene S band peak areas) [3] [fold] | total intracellular iron normalized to viable cell counts, relative to untreated biofilms [4] [fold] | fold decrease of Kd relative to compound 16 (BfrB (apo-BfrB); relative to compound 16) [fold]
O=C1NC(=O)c2c(NCc3cc(Cl)ccc3O)cccc21 [KM-5-25] | 4 ± 0.6 | ~2 | approximately 80% | approximately 80% | ~3 | ~2.5 | –
O=C1NC(=O)c2c(NCCCc3cc(O)cc(Cl)c3)cccc21 [KM-5-66] | 0.35 ± 0.05 | – | approximately 80% | approximately 80% | ~3 | ~2.5 | ~4
